PubChem BioAssay (NCI)
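Assay format: 96-well plates, 48-hour exposure. GI50: concentration for 50% inhibition of growth. The concentration for full growth arrest is given as TGI.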

Experiments:
Assay in all cases: DTP human tumour cell line panel, 48 h
SK-MEL-2 melanoma = test system: SK-MEL-2 melanoma
SN12C renal = test system: SN12C renal
OVCAR-3 ovarian = test system: OVCAR-3 ovarian
HL-60(TB) leukemia = test system: HL-60(TB) leukemia
UACC-62 melanoma = test system: UACC-62 melanoma
HOP-62 NSCLC = test system: HOP-62 NSCLC
SF-295 CNS = test system: SF-295 CNS
A549 NSCLC = test system: A549 NSCLC
SNB-75 CNS = test system: SNB-75 CNS
HCT-116 colon = test system: HCT-116 colon
SR leukemia = test system: SR leukemia
RXF 393 renal = test system: RXF 393 renal
IGROV1 ovarian = test system: IGROV1 ovarian
MALME-3M melanoma = test system: MALME-3M melanoma
MCF7 breast = test system: MCF7 breast
SK-OV-3 ovarian = test system: SK-OV-3 ovarian
ACHN renal = test system: ACHN renal
CCRF-CEM leukemia = test system: CCRF-CEM leukemia
K-562 leukemia = test system: K-562 leukemia
PC-3 prostate = test system: PC-3 prostate
MDA-MB-435 = test system: MDA-MB-435
HT29 colon = test system: HT29 colon
BT-549 breast = test system: BT-549 breast
LOX IMVI melanoma = test system: LOX IMVI melanoma
NCI-H226 lung = test system: NCI-H226 lung
UACC-257 melanoma = test system: UACC-257 melanoma
OVCAR-4 ovarian = test system: OVCAR-4 ovarian
DU-145 prostate = test system: DU-145 prostate
EKVX NSCLC = test system: EKVX NSCLC
TK-10 renal = test system: TK-10 renal
SW-620 colon = test system: SW-620 colon
A498 renal = test system: A498 renal
OVCAR-8 ovarian = test system: OVCAR-8 ovarian
KM12 colon = test system: KM12 colon
U251 CNS = test system: U251 CNS
786-0 renal = test system: 786-0 renal
HOP-92 NSCLC = test system: HOP-92 NSCLC
T-47D breast = test system: T-47D breast
HCC-2998 colon = test system: HCC-2998 colon
NCI-H460 lung = test system: NCI-H460 lung
SNB-19 CNS = test system: SNB-19 CNS
SK-MEL-5 melanoma = test system: SK-MEL-5 melanoma
MDA-MB-231 breast = test system: MDA-MB-231 breast
OVCAR-5 ovarian = test system: OVCAR-5 ovarian
RPMI-8226 leukemia = test system: RPMI-8226 leukemia
UO-31 renal = test system: UO-31 renal
SK-MEL-28 melanoma = test system: SK-MEL-28 melanoma
MOLT-4 leukemia = test system: MOLT-4 leukemia
SF-539 CNS = test system: SF-539 CNS
COLO 205 colon = test system: COLO 205 colon
NCI-H522 lung = test system: NCI-H522 lung
HS 578T breast = test system: HS 578T breast
NCI/ADR-RES ovarian = test system: NCI/ADR-RES ovarian
SF-268 CNS = test system: SF-268 CNS
CAKI-1 renal = test system: CAKI-1 renal
HCT-15 colon = test system: HCT-15 colon
M14 melanoma = test system: M14 melanoma

SMILES: CCNC(=O)N1CCc2cc(OC)c(OCCc3ccc(OC)c(N)c3)cc2C1c1ccc(C)cc1C (stereo not drawn)
- GI50 (SK-MEL-2 melanoma): 996 nM
- TGI (SK-MEL-2 melanoma): 14400 nM
- GI50 (SN12C renal): 294 nM
- TGI (SN12C renal): 22200 nM
- GI50 (OVCAR-3 ovarian): 150 nM
- TGI (OVCAR-3 ovarian): 22200 nM
- GI50 (HL-60(TB) leukemia): 100 nM
- TGI (HL-60(TB) leukemia): 1820 nM
- GI50 (UACC-62 melanoma): 105 nM
- TGI (UACC-62 melanoma): 2750 nM
- GI50 (HOP-62 NSCLC): 226 nM
- TGI (HOP-62 NSCLC): > 46400 nM
- GI50 (SF-295 CNS): 164 nM
- TGI (SF-295 CNS): 11100 nM
- GI50 (A549 NSCLC): 151 nM
- TGI (A549 NSCLC): > 100000 nM
- GI50 (SNB-75 CNS): 184 nM
- TGI (SNB-75 CNS): 4270 nM
- GI50 (HCT-116 colon): 31.1 nM
- TGI (HCT-116 colon): 25800 nM
- GI50 (SR leukemia): 27 nM
- TGI (SR leukemia): 6240 nM
- GI50 (RXF 393 renal): 234 nM
- TGI (RXF 393 renal): 5010 nM
- GI50 (IGROV1 ovarian): 132 nM
- TGI (IGROV1 ovarian): > 100000 nM
- GI50 (MALME-3M melanoma): 624 nM
- TGI (MALME-3M melanoma): 76100 nM
- GI50 (MCF7 breast): 63.4 nM
- TGI (MCF7 breast): > 83500 nM
- GI50 (SK-OV-3 ovarian): 533 nM
- TGI (SK-OV-3 ovarian): > 90000 nM
- GI50 (ACHN renal): 121 nM
- TGI (ACHN renal): > 60400 nM
- GI50 (CCRF-CEM leukemia): 58.6 nM
- TGI (CCRF-CEM leukemia): > 76600 nM
- GI50 (K-562 leukemia): 29.1 nM
- TGI (K-562 leukemia): > 100000 nM
- GI50 (PC-3 prostate): 54.8 nM
- TGI (PC-3 prostate): > 100000 nM
- GI50 (MDA-MB-435): 139 nM
- TGI (MDA-MB-435): 496 nM
- GI50 (HT29 colon): 261 nM
- TGI (HT29 colon): 1770 nM
- GI50 (BT-549 breast): 349 nM
- TGI (BT-549 breast): 3460 nM
- GI50 (LOX IMVI melanoma): 36.5 nM
- TGI (LOX IMVI melanoma): 1740 nM
- GI50 (NCI-H226 lung): 643 nM
- TGI (NCI-H226 lung): 14600 nM
- GI50 (UACC-257 melanoma): 533 nM
- TGI (UACC-257 melanoma): > 82000 nM
- GI50 (OVCAR-4 ovarian): 1470 nM
- TGI (OVCAR-4 ovarian): > 100000 nM
- GI50 (DU-145 prostate): 208 nM
- TGI (DU-145 prostate): > 40800 nM
- GI50 (EKVX NSCLC): 1510 nM
- TGI (EKVX NSCLC): > 100000 nM
- GI50 (TK-10 renal): 2140 nM
- TGI (TK-10 renal): > 100000 nM
- GI50 (SW-620 colon): 106 nM
- TGI (SW-620 colon): > 100000 nM
- GI50 (A498 renal): 2780 nM
- GI50 (OVCAR-8 ovarian): 105 nM
- TGI (OVCAR-8 ovarian): 34300 nM
- GI50 (KM12 colon): 493 nM
- TGI (KM12 colon): 65900 nM
- GI50 (U251 CNS): 74.3 nM
- TGI (U251 CNS): 24600 nM
- GI50 (786-0 renal): 165 nM
- TGI (786-0 renal): 92000 nM
- GI50 (HOP-92 NSCLC): 4810 nM
- TGI (HOP-92 NSCLC): 56700 nM
- GI50 (T-47D breast): 280 nM
- TGI (T-47D breast): 92800 nM
- GI50 (HCC-2998 colon): 344 nM
- TGI (HCC-2998 colon): 23300 nM
- GI50 (NCI-H460 lung): 30.9 nM
- TGI (NCI-H460 lung): 1890 nM
- GI50 (SNB-19 CNS): 191 nM
- TGI (SNB-19 CNS): > 100000 nM
- GI50 (SK-MEL-5 melanoma): 106 nM
- TGI (SK-MEL-5 melanoma): 1700 nM
- GI50 (MDA-MB-231 breast): 134 nM
- TGI (MDA-MB-231 breast): > 56300 nM
- GI50 (OVCAR-5 ovarian): 538 nM
- TGI (OVCAR-5 ovarian): > 100000 nM
- GI50 (RPMI-8226 leukemia): 89.9 nM
- TGI (RPMI-8226 leukemia): 1600 nM
- GI50 (UO-31 renal): 238 nM
- TGI (UO-31 renal): > 95000 nM
- GI50 (SK-MEL-28 melanoma): 283 nM
- TGI (SK-MEL-28 melanoma): 23300 nM
- GI50 (MOLT-4 leukemia): 38.4 nM
- TGI (MOLT-4 leukemia): > 100000 nM
- GI50 (SF-539 CNS): 77.1 nM
- TGI (SF-539 CNS): 1740 nM
- GI50 (COLO 205 colon): 318 nM
- TGI (COLO 205 colon): 2820 nM
- GI50 (NCI-H522 lung): 98.4 nM
- TGI (NCI-H522 lung): 440 nM
- GI50 (HS 578T breast): 273 nM
- TGI (HS 578T breast): 23800 nM
- GI50 (NCI/ADR-RES ovarian): 229 nM
- TGI (NCI/ADR-RES ovarian): 2460 nM
- GI50 (SF-268 CNS): 278 nM
- TGI (SF-268 CNS): > 95300 nM
- GI50 (CAKI-1 renal): 161 nM
- TGI (CAKI-1 renal): 31400 nM
- GI50 (HCT-15 colon): < 26.3 nM
- TGI (HCT-15 colon): > 100000 nM
- GI50 (M14 melanoma): 205 nM
- TGI (M14 melanoma): 15200 nM
